Reference: US20170105981A1, “METHODS FOR STABILIZING HYPOXIA INDUCIBLE FACTOR-2 ALPHA AS A METHOD FOR TREATING CANCER” (The Ohio State Innovation Foundation, priority 2011, published 2017)

Tested on: A2780/CP tumor cells
Experiment: A2780/CP ovarian tumor xenograft model
Format: in vivo, female athymic nude mice
Description: The compound tested, {[5-(3-fluorophenyl)-3-hydroxypyridine-2-carbonyl]-amino} acetic acid, was formulated in a 0.25% hydroxypropyl methyl cellulose/0.1% Tween™ 80 solution in reverse osmosis deionized water. The test compound was reconstituted at concentrations of 1.8 and 3.6 mg/ml as instructed on each vial to deliver doses of 18 and 36 mg/kg, respectively, at a […] dose volume. Solutions of the test compound were prepared weekly and stored at 4° C. protected from light. All formulations were removed from the refrigerator and stirred for 30 minutes before dosing, and continuously stirred during dosing.
The vehicle control was prepared by making a solution of 0.25% hydroxypropyl methyl cellulose/0.1% Tween™ 80 solution in reverse osmosis deionized water.
A2780/CP ovarian tumor cell line was received from Sigma-Aldrich (St. Louis, Mo.). Cultures were maintained in RPMI 1640 (Hyclone, Logan, Utah), supplemented with 10% fetal bovine serum, and housed in a 5% CO2 atmosphere. The cultures were expanded in tissue culture flasks at a 1:3 split ratio until a sufficient yield of cells was achieved.
Female athymic nude mice were supplied by Harlan (Indianapolis, Ind.). Mice were received at four to five weeks of age, 12-15 grams in weight, and were acclimated for seven days prior to handling. The mice were housed in microisolator cages and maintained under specific pathogen-free conditions. The mice were fed Tekland Global Diet™ 2920x irradiated laboratory animal diet (Harlan, Indianapolis, Ind.) and autoclaved water was freely available.
Sixty female mice were inoculated subcutaneously in the right flank with 0.1 ml of a 50% RPMI/50% Matrigel™ (BD Biosciences, Bedford, Mass.) mixture containing a suspension of A2780/CP tumor cells (approximately 1.0×10^7 cells/mouse).
Three days following inoculation, tumors were measured using calipers and tumor weight was calculated using the animal study management software. Thirty mice with tumor sizes of 80.4-170.6 mg were randomized into three groups often mice (Groups 1-3) by random equilibration. Body weights were recorded when the mice were randomized and were taken twice per week thereafter in conjunction with tumor measurements.
Animals were treated until the study endpoint. Group I received only vehicle (control). Group II was given doses of 1.8 mg/mL {[5-(3-fluorophenyl)-3-hydroxypyridine-2-carbonyl]-amino} acetic acid while Group III was given doses of 3.6 mg/mL {[5-(3-fluorophenyl)-3-hydroxypyridine-2-carbonyl]-amino} acetic acid. All doses were given via oral administration (PO). The administered volume of each dose was approximately 1 mL/100 g body weight of animal.
Tumor mass (mg) was determined using the formula:
where “a” is the largest diameter and “b” is the smallest diameter. Measurements were made using calipers. The mean tumor size when study began was 100-125 mg. On day one of the study, animals were randomly assigned to the three groups described above.
Tumors were collected from Groups 1-3 of the main study when individual tumors reached a tumor weight of ≧2000 mg by using the procedure above. Tumor size measurements and animal body weight were taken twice weekly.

O=C(O)CNC(=O)c1ncc(-c2cccc(F)c2)cc1O [disclosed HIF-2α stabilizer, {[5-(3-Fluorophenyl)-3-hydroxypyridine-2-carbonyl]amino} acetic acid]
Mean Tumor Mass (18 mg/kg QD PO, study day 1): 119.6 mg | Median Tumor Mass (18 mg/kg QD PO, study day 1): 121.3 mg | Mean Tumor Mass (18 mg/kg QD PO, study day 4): 188.2 mg | Median Tumor Mass (18 mg/kg QD PO, study day 4): 191.0 mg | No. Surviving Animals (18 mg/kg QD PO, study day 4): 10 | Wgt % change (18 mg/kg QD PO, study day 4): −0.31% | Mean Tumor Mass (18 mg/kg QD PO, study day 8): 326.9 mg | Median Tumor Mass (18 mg/kg QD PO, study day 8): 243.8 mg | No. Surviving Animals (18 mg/kg QD PO, study day 8): 10 | Wgt % change (18 mg/kg QD PO, study day 8): 4.40% | Mean Tumor Mass (18 mg/kg QD PO, study day 11): 682.8 mg | Median Tumor Mass (18 mg/kg QD PO, study day 11): 528.0 mg | No. Surviving Animals (18 mg/kg QD PO, study day 11): 10 | Wgt % change (18 mg/kg QD PO, study day 11): 6.02% | Mean Tumor Mass (18 mg/kg QD PO, study day 16): 2508.0 mg | Median Tumor Mass (18 mg/kg QD PO, study day 16): 1826.2 mg | No. Surviving Animals (18 mg/kg QD PO, study day 16): 10 | Wgt % change (18 mg/kg QD PO, study day 16): 16.40% | Mean Tumor Mass (18 mg/kg QD PO, study day 19): 2647.4 mg | Median Tumor Mass (18 mg/kg QD PO, study day 19): 3030.1 mg | No. Surviving Animals (18 mg/kg QD PO, study day 19): 6 | Wgt % change (18 mg/kg QD PO, study day 19): 16.82% | Mean Tumor Mass (18 mg/kg QD PO, study day 22): 1761.6 mg | Median Tumor Mass (18 mg/kg QD PO, study day 22): 1761.6 mg | No. Surviving Animals (18 mg/kg QD PO, study day 22): 1 | Wgt % change (18 mg/kg QD PO, study day 22): 19.43% | Mean Tumor Mass (18 mg/kg QD PO, study day 25): 2838.3 mg | Median Tumor Mass (18 mg/kg QD PO, study day 25): 2838.3 mg | No. Surviving Animals (18 mg/kg QD PO, study day 25): 1 | Wgt % change (18 mg/kg QD PO, study day 25): 19.43% | Mean Tumor Mass (36 mg/kg QD PO, study day 1): 120.3 mg | Median Tumor Mass (36 mg/kg QD PO, study day 1): 123.3 mg | Mean Tumor Mass (36 mg/kg QD PO, study day 4): 186.4 mg | Median Tumor Mass (36 mg/kg QD PO, study day 4): 182.8 mg | No. Surviving Animals (36 mg/kg QD PO, study day 4): 10 | Wgt % change (36 mg/kg QD PO, study day 4): −0.41% | Mean Tumor Mass (36 mg/kg QD PO, study day 8): 312.8 mg | Median Tumor Mass (36 mg/kg QD PO, study day 8): 323.4 mg | No. Surviving Animals (36 mg/kg QD PO, study day 8): 10 | Wgt % change (36 mg/kg QD PO, study day 8): 4.04% | Mean Tumor Mass (36 mg/kg QD PO, study day 11): 708.1 mg | Median Tumor Mass (36 mg/kg QD PO, study day 11): 830.4 mg | No. Surviving Animals (36 mg/kg QD PO, study day 11): 10 | Wgt % change (36 mg/kg QD PO, study day 11): 5.48% | Mean Tumor Mass (36 mg/kg QD PO, study day 16): 2354.5 mg | Median Tumor Mass (36 mg/kg QD PO, study day 16): 2441.8 mg | No. Surviving Animals (36 mg/kg QD PO, study day 16): 10 | Wgt % change (36 mg/kg QD PO, study day 16): 15.86% | Mean Tumor Mass (36 mg/kg QD PO, study day 19): 1858.8 mg | Median Tumor Mass (36 mg/kg QD PO, study day 19): 1568.0 mg | No. Surviving Animals (36 mg/kg QD PO, study day 19): 4 | Wgt % change (36 mg/kg QD PO, study day 19): 12.79% | Mean Tumor Mass (36 mg/kg QD PO, study day 22): 2456.9 mg | Median Tumor Mass (36 mg/kg QD PO, study day 22): 2384.6 mg | No. Surviving Animals (36 mg/kg QD PO, study day 22): 3 | Wgt % change (36 mg/kg QD PO, study day 22): 8.50% | rate of tumor mass growth (18 and 36 mg/kg QD PO vs control group, FIGS. 7 to 9, Table I): significantly reduced
